Test results published in patent publication US20020142327A1, “Expression analysis of smarc nucleic acids and polypeptides useful in the diagnosis and treatment of prostate cancer” (priority 2000, published 2002).

What was measured:
Assay type in all cases: cell-based, Human
[1] = system: prostate specific antigen (PSA) expression; test: Affymetrix GeneChip expression analysis of LNCaP cells, PSA; settings: 10 nM DHT
Description: (§1) Human prostatic cancer cell lines LNCaP, DU-145, PC-3, and Tsu-prl were obtained from ATCC. LNCaP cancer cells were maintained in humidified atmosphere of 5% CO2 in air in RPMI 1640 medium supplemented with 10% fetal calf serum (Life Technologies, Inc, Rockville, Md.), 3 mM L-glutamine, 100 μg/ml streptomycin and 100 units/ml penicillin. Other lines were maintained in DMEM containing 3 mM L-glutamine, 100 μg/ml streptomycin, 100 units/ml penicillin, and 10% FCS in humidified atmosphere of 5% CO2. To examine the effects of steroids, cells were cultured in RPMI 1640 medium containing 5% FCS treated with dextran coated charcoal (Hyclone, Logan, Utah) for 24 hs before treatment. Cells were grown in the absence or presence of 10 nM DHT for 0, 2, 4, 6, 12, 24, 48, and 72 hs. They were collected and frozen at each time point. Two hundred μl of medium were collected from each flask for PSA assay.
Total RNA was isolated from LNCaP cells using the Qiagen Rneasy Midi Kit following the manufacturer's recommendations. For polyA (+) selection, the Promega PolyATract kit was used according to manufacturer's procedures. […] The cRNA was purified by SPRI using paramagnetic beads (Bangs Laboratories), and total molar concentration was determined from the absorbance at 260. […]

LNCaP cells = test: Cell growth assay (MTT) of LNCaP cells treated with DHT
Description: as §1
To verify the effect of DHT on the growth of LNCaP cells, cells at 3,000 cells/well were plated in 96-well plates for 24 hs before treatment with DHT. After 72 hs, MTT was added to each well and incubated at 37° C. for four hs. At the end of incubation, the supernatant was removed and 100 μl DMSO was added to each well to dissolve […]. Plates were subsequently read in a plate reader at […].

PSA production = test: PSA ELISA on medium of LNCaP cells treated with DHT
Description: as §1
Quantification of PSA was performed using an ELISA. Briefly, a 96-well Nunc plate was coated with 100 μl of goat anti-PSA (1 μg/ml, Scripps laboratory, San Diego, Calif.) overnight at 4° C. The plate was washed with water three times and incubated with 100 μl of blocking buffer (PBS, 0.05% Tween 20, 1 μM EDTA, 0.25% BSA, and 0.05% NaN3) for 1 h at room temperature. The plate was washed three times with water and incubated with 1:1 mixture of mouse anti-human PSA and Eu-labeled anti-mouse IgG (10 ng/antibody each/well for 1½ hs at RT). The plate was then washed four times with water. 100 μl of Delfia Enhancement Solution (PerkinElmer Wallac Inc (Norton, Ohio) was added to the plate was read using a Victor reader according to the manufacturer's instruction.

SMARCD3 expression = test: Affymetrix GeneChip expression analysis of LNCaP cells, SMARCD3
Description: as §1
Total RNA was isolated from LNCaP cells using the Qiagen Rneasy Midi Kit following the manufacturer's recommendations. For polyA (+) selection, the Promega PolyATract kit was used according to manufacturer's procedures. Briefly, LNCaP cells were collected by centrifugation and the RNA isolated using the buffers and recommended procedures from the Qiagen kit. Following RNA extraction, all samples were frozen at −80° C. One microgram of poly A(+) RNA was used as template for synthesis of double-stranded cDNA using the GibcoBRL cDNA synthesis kit, with an oligo dT primer incorporating a T7 RNA polymerase promoter (10 minutes at 70° C. for priming, 65 minutes at 37° C. for first strand synthesis with Superscript II RT, followed by 150 min at 15.8° C. for second strand synthesis with E. coli ligase, E. coli polymerase, and RNAse H). […] The cRNA was purified by SPRI using paramagnetic beads (Bangs Laboratories), and total molar concentration was determined from the absorbance at 260. […]

## C[C@]12CCC(=O)C[C@@H]1CC[C@@H]1[C@@H]2CC[C@]2(C)[C@@H](O)CC[C@@H]12 [DHT]
[1]; 12 hours
  PSA expression increase relative to control: 3 fold
[1]; 72 hours
  PSA expression induction relative to control: approximately 4 fold
LNCaP cells; 10 nM DHT
  growth effect at the chosen concentration: robust growth-stimulatory effect
LNCaP cells; dose response, 72 hs, MTT
  growth of LNCaP cells: stimulated
PSA production; DHT treatment
  time at which PSA signal was first detected: 12 h
  time of maximal PSA level: about 48 hs
PSA production; dose response, ELISA
  PSA production: increased in a dose-dependent manner
SMARCD3 expression; 24 hours post-androgen treatment
  decrease in SMARCD3 expression levels: 2 fold
SMARCD3 expression; 48 hours post-treatment
  decrease in SMARCD3 expression levels: 4 fold
SMARCD3 expression; 72 hours post-treatment
  decrease in SMARCD3 expression levels: 6 fold
